Laboratory results as given in ChEMBL document CHEMBL1201862, “PubChem BioAssay data set” (2004).
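Compound exposure: 48 hours, 5 concentrations, 96-well plates. Here, GI50 denotes the concentration required for 50% inhibition of growth.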 Active and inactive are the calls of the source. Rule as the data show it: active = GI50 up to about 1.1 µM and inactive = higher.

Columns and labels:
Assay in all cases: NCI tumour cell line growth inhibition, 48 h
[1] = tested on: A549
[2] = tested on: Malme-3M
[3] = tested on: HCC 2998
[4] = tested on: RPMI-8226
[5] = tested on: UACC-257
[6] = tested on: MDA-MB-231
[7] = tested on: IGROV-1
[8] = tested on: SNB-75
[9] = tested on: NCI-H23
[10] = tested on: CAKI-1
[11] = tested on: SR
[12] = tested on: SF-268
[13] = tested on: M14
[14] = tested on: T47D
[15] = tested on: HCT-116
[16] = tested on: MOLT-4
[17] = tested on: SW-620
[18] = tested on: 786-0
[19] = tested on: SK-MEL-28
[20] = tested on: MDA-N
[21] = tested on: U-251
[22] = tested on: NCI-H226
[23] = tested on: OVCAR-3
[24] = tested on: MDA-MB-435
[25] = tested on: NCI/ADR-RES
[26] = tested on: Hs-578T
[27] = tested on: HOP-62
[28] = tested on: SF-539
[29] = tested on: MCF7
[30] = tested on: UACC-62
[31] = tested on: HOP-92
[32] = tested on: SK-OV-3
[33] = tested on: OVCAR-5
[34] = tested on: HT-29
[35] = tested on: NCI-H522
[36] = tested on: SK-MEL-2
[37] = tested on: DU-145
[38] = tested on: COLO 205
[39] = tested on: SF-295
[40] = tested on: TK-10
[41] = tested on: UO-31
[42] = tested on: ACHN
[43] = tested on: NCI-H460
[44] = tested on: HL-60
[45] = tested on: OVCAR-8
[46] = tested on: SNB-19
[47] = tested on: SK-MEL-5
[48] = tested on: LOX IMVI
[49] = tested on: A498
[50] = tested on: KM12
[51] = tested on: RXF 393
[52] = tested on: K562
[53] = tested on: EKVX
[54] = tested on: HCT-15
[55] = tested on: SN12C
[56] = tested on: OVCAR-4
[57] = tested on: PC-3
[58] = tested on: BT-549
[59] = tested on: CCRF-CEM

CC(Oc1ccccc1Cl)C(=O)NN1C(=O)CC(=O)N(c2ccccc2)C1=S (centres undefined)
GI50 [1]: 41.1 µM (inactive) | GI50 [2]: > 100 µM (inactive) | GI50 [3]: 82.2 µM (inactive) | GI50 [4]: 47.8 µM (inactive) | GI50 [5]: 55.2 µM (inactive) | GI50 [6]: 42.7 µM (inactive) | GI50 [7]: 52.6 µM (inactive) | GI50 [8]: 49.1 µM (inactive) | GI50 [9]: 38.1 µM (inactive) | GI50 [10]: 41.2 µM (inactive) | GI50 [11]: 33.3 µM (inactive) | GI50 [12]: 86.7 µM (inactive) | GI50 [13]: 59 µM (inactive) | GI50 [14]: 31.9 µM (inactive) | GI50 [15]: 34.9 µM (inactive) | GI50 [16]: 30 µM (inactive) | GI50 [17]: 55.7 µM (inactive) | GI50 [18]: 94.8 µM (inactive) | GI50 [19]: 88.3 µM (inactive) | GI50 [20]: 82.2 µM (inactive) | GI50 [21]: 41 µM (inactive) | GI50 [22]: 38.6 µM (inactive) | GI50 [23]: 38 µM (inactive) | GI50 [24]: 42.6 µM (inactive) | GI50 [25]: 38.5 µM (inactive) | GI50 [26]: > 100 µM (inactive) | GI50 [27]: 46.7 µM (inactive) | GI50 [28]: 66.7 µM (inactive) | GI50 [29]: 31 µM (inactive) | GI50 [30]: 33.3 µM (inactive) | GI50 [31]: 20.4 µM (inactive) | GI50 [32]: 51.5 µM (inactive) | GI50 [33]: > 100 µM (inactive) | GI50 [34]: 54.5 µM (inactive) | GI50 [35]: 37 µM (inactive) | GI50 [36]: 34.4 µM (inactive) | GI50 [37]: 42.9 µM (inactive) | GI50 [38]: 32.2 µM (inactive) | GI50 [39]: 39.1 µM (inactive) | GI50 [40]: 74.8 µM (inactive) | GI50 [41]: 53 µM (inactive) | GI50 [42]: 38.3 µM (inactive) | GI50 [43]: 44.2 µM (inactive) | GI50 [44]: 18.7 µM (inactive) | GI50 [45]: 41.4 µM (inactive) | GI50 [46]: 71.1 µM (inactive) | GI50 [47]: 42.8 µM (inactive) | GI50 [48]: 38.4 µM (inactive) | GI50 [49]: 22.3 µM (inactive) | GI50 [50]: 60.1 µM (inactive) | GI50 [51]: 32.1 µM (inactive) | GI50 [52]: 33.7 µM (inactive) | GI50 [53]: 57.1 µM (inactive) | GI50 [54]: 38 µM | GI50 [55]: > 100 µM (inactive) | GI50 [56]: 54 µM (inactive) | GI50 [57]: 40.8 µM (inactive) | GI50 [58]: 54.1 µM (inactive)

COCn1c2ccc(OC(C)=O)cc2c2c(=O)oc(N(C)C)nc21
GI50 [1]: > 100 µM (inactive) | GI50 [2]: > 100 µM (inactive) | GI50 [3]: > 100 µM (inactive) | GI50 [4]: > 100 µM (inactive) | GI50 [5]: > 100 µM (inactive) | GI50 [6]: > 100 µM (inactive) | GI50 [7]: > 100 µM (inactive) | GI50 [8]: > 100 µM (inactive) | GI50 [9]: > 100 µM (inactive) | GI50 [10]: > 100 µM (inactive) | GI50 [11]: > 100 µM (inactive) | GI50 [59]: > 100 µM (inactive) | GI50 [13]: > 100 µM (inactive) | GI50 [14]: > 100 µM (inactive) | GI50 [15]: > 100 µM (inactive) | GI50 [16]: > 100 µM (inactive) | GI50 [17]: > 100 µM (inactive) | GI50 [18]: > 100 µM (inactive) | GI50 [19]: > 100 µM (inactive) | GI50 [20]: > 100 µM (inactive) | GI50 [21]: > 100 µM (inactive) | GI50 [22]: > 100 µM (inactive) | GI50 [24]: > 100 µM (inactive) | GI50 [25]: > 100 µM (inactive) | GI50 [26]: > 100 µM (inactive) | GI50 [27]: > 100 µM (inactive) | GI50 [28]: > 100 µM (inactive) | GI50 [29]: > 100 µM (inactive) | GI50 [30]: > 100 µM (inactive) | GI50 [31]: > 100 µM (inactive) | GI50 [32]: > 100 µM (inactive) | GI50 [33]: > 100 µM (inactive) | GI50 [34]: > 100 µM (inactive) | GI50 [35]: > 100 µM (inactive) | GI50 [36]: > 100 µM (inactive) | GI50 [37]: > 100 µM (inactive) | GI50 [38]: > 100 µM (inactive) | GI50 [39]: > 100 µM (inactive) | GI50 [40]: > 100 µM (inactive) | GI50 [42]: > 100 µM (inactive) | GI50 [43]: > 100 µM (inactive) | GI50 [44]: > 100 µM (inactive) | GI50 [45]: > 100 µM (inactive) | GI50 [46]: > 100 µM (inactive) | GI50 [47]: > 100 µM (inactive) | GI50 [48]: > 100 µM (inactive) | GI50 [49]: > 100 µM (inactive) | GI50 [50]: > 100 µM (inactive) | GI50 [51]: > 100 µM (inactive) | GI50 [52]: > 100 µM (inactive) | GI50 [53]: > 100 µM (inactive) | GI50 [54]: > 100 µM | GI50 [55]: > 100 µM (inactive) | GI50 [56]: > 100 µM (inactive) | GI50 [57]: > 100 µM (inactive) | GI50 [58]: > 100 µM (inactive)
